Measured values published in the NIST ThermoML archive (doi:10.1021/acs.jced.8b00466).
± gives the expanded uncertainty stated by the source.

Assay: wn = mass fraction of the nth substance listed
Settings: 102 kPa, Liquid, Vibrating tube method

O=S(=O)(O)O [sulfuric acid] + O
mass density (273.15 K, w1 = 0.0966): 1069.26 ± 16 kg/m3 | mass density (273.15 K, w1 = 0.1151): 1085.84 ± 15 kg/m3 | mass density (273.15 K, w1 = 0.1365): 1101.81 ± 15 kg/m3 | mass density (273.15 K, w1 = 0.1536): 1114.2 ± 16 kg/m3 | mass density (273.15 K, w1 = 0.1728): 1128.95 ± 15 kg/m3 | mass density (273.15 K, w1 = 0.192): 1145.91 ± 16 kg/m3 | mass density (273.15 K, w1 = 0.2112): 1159.41 ± 17 kg/m3 | mass density (273.15 K, w1 = 0.2304): 1177.19 ± 17 kg/m3 | mass density (273.15 K, w1 = 0.2409): 1185.57 ± 17 kg/m3 | mass density (273.15 K, w1 = 0.2688): 1209.44 ± 17 kg/m3 | mass density (273.15 K, w1 = 0.288): 1224.11 ± 17 kg/m3 | mass density (273.15 K, w1 = 0.3072): 1241.05 ± 16 kg/m3 | mass density (273.15 K, w1 = 0.3265): 1256.77 ± 17 kg/m3 | mass density (273.15 K, w1 = 0.3457): 1272.18 ± 17 kg/m3 | mass density (273.15 K, w1 = 0.3648): 1288.04 ± 17 kg/m3 | mass density (273.15 K, w1 = 0.384): 1305.68 ± 18 kg/m3 | mass density (273.15 K, w1 = 0.4): 1319.14 ± 18 kg/m3 | mass density (283.15 K, w1 = 0.0966): 1066.08 ± 16 kg/m3 | mass density (283.15 K, w1 = 0.1151): 1082.07 ± 15 kg/m3 | mass density (283.15 K, w1 = 0.1365): 1097.5 ± 15 kg/m3 | mass density (283.15 K, w1 = 0.1536): 1109.5 ± 15 kg/m3 | mass density (283.15 K, w1 = 0.1728): 1123.83 ± 15 kg/m3 | mass density (283.15 K, w1 = 0.192): 1140.32 ± 16 kg/m3 | mass density (283.15 K, w1 = 0.2112): 1153.51 ± 16 kg/m3 | mass density (283.15 K, w1 = 0.2304): 1170.92 ± 16 kg/m3 | mass density (283.15 K, w1 = 0.2409): 1179.14 ± 17 kg/m3 | mass density (283.15 K, w1 = 0.2688): 1201.63 ± 16 kg/m3 | mass density (283.15 K, w1 = 0.288): 1217.14 ± 16 kg/m3 | mass density (283.15 K, w1 = 0.3072): 1233.47 ± 16 kg/m3 | mass density (283.15 K, w1 = 0.3265): 1249.51 ± 17 kg/m3 | mass density (283.15 K, w1 = 0.3457): 1264.81 ± 17 kg/m3 | mass density (283.15 K, w1 = 0.3648): 1280.59 ± 17 kg/m3 | mass density (283.15 K, w1 = 0.384): 1298.19 ± 17 kg/m3 | mass density (283.15 K, w1 = 0.4): 1311.55 ± 18 kg/m3 | mass density (293.15 K, w1 = 0.0966): 1062.3 ± 15 kg/m3 | mass density (293.15 K, w1 = 0.1151): 1077.83 ± 14 kg/m3 | mass density (293.15 K, w1 = 0.1365): 1092.86 ± 14 kg/m3 | mass density (293.15 K, w1 = 0.1536): 1104.52 ± 15 kg/m3 | mass density (293.15 K, w1 = 0.1728): 1118.46 ± 15 kg/m3 | mass density (293.15 K, w1 = 0.192): 1134.59 ± 16 kg/m3 | mass density (293.15 K, w1 = 0.2112): 1147.52 ± 16 kg/m3 | mass density (293.15 K, w1 = 0.2304): 1164.6 ± 16 kg/m3 | mass density (293.15 K, w1 = 0.2409): 1172.69 ± 16 kg/m3 | mass density (293.15 K, w1 = 0.2688): 1194.85 ± 16 kg/m3 | mass density (293.15 K, w1 = 0.288): 1210.18 ± 16 kg/m3 | mass density (293.15 K, w1 = 0.3072): 1227.15 ± 16 kg/m3 | mass density (293.15 K, w1 = 0.3265): 1242.27 ± 16 kg/m3 | mass density (293.15 K, w1 = 0.3457): 1257.51 ± 17 kg/m3 | mass density (293.15 K, w1 = 0.3648): 1273.21 ± 17 kg/m3 | mass density (293.15 K, w1 = 0.384): 1290.73 ± 17 kg/m3 | mass density (293.15 K, w1 = 0.4): 1304.07 ± 18 kg/m3 | mass density (298.15 K, w1 = 0.0966): 1060.23 ± 15 kg/m3 | mass density (298.15 K, w1 = 0.1151): 1075.55 ± 14 kg/m3 | mass density (298.15 K, w1 = 0.1365): 1090.39 ± 14 kg/m3 | mass density (298.15 K, w1 = 0.1536): 1101.94 ± 15 kg/m3 | mass density (298.15 K, w1 = 0.1728): 1115.73 ± 15 kg/m3 | mass density (298.15 K, w1 = 0.192): 1131.69 ± 16 kg/m3 | mass density (298.15 K, w1 = 0.2112): 1144.52 ± 16 kg/m3 | mass density (298.15 K, w1 = 0.2304): 1161.54 ± 16 kg/m3 | mass density (298.15 K, w1 = 0.2409): 1169.48 ± 16 kg/m3 | mass density (298.15 K, w1 = 0.2688): 1191.58 ± 16 kg/m3 | mass density (298.15 K, w1 = 0.288): 1206.76 ± 16 kg/m3 | mass density (298.15 K, w1 = 0.3072): 1223.62 ± 16 kg/m3 | mass density (298.15 K, w1 = 0.3265): 1238.85 ± 16 kg/m3 | mass density (298.15 K, w1 = 0.3457): 1253.89 ± 17 kg/m3 | mass density (298.15 K, w1 = 0.3648): 1269.57 ± 17 kg/m3 | mass density (298.15 K, w1 = 0.384): 1287.05 ± 17 kg/m3 | mass density (298.15 K, w1 = 0.4): 1300.36 ± 18 kg/m3 | mass density (303.15 K, w1 = 0.0966): 1058.04 ± 15 kg/m3 | mass density (303.15 K, w1 = 0.1151): 1073.22 ± 14 kg/m3 | mass density (303.15 K, w1 = 0.1365): 1087.86 ± 14 kg/m3 | mass density (303.15 K, w1 = 0.1536): 1099.31 ± 15 kg/m3 | mass density (303.15 K, w1 = 0.1728): 1112.95 ± 14 kg/m3 | mass density (303.15 K, w1 = 0.192): 1128.88 ± 15 kg/m3 | mass density (303.15 K, w1 = 0.2112): 1141.48 ± 16 kg/m3 | mass density (303.15 K, w1 = 0.2304): 1158.39 ± 15 kg/m3 | mass density (303.15 K, w1 = 0.2409): 1166.27 ± 16 kg/m3 | mass density (303.15 K, w1 = 0.2688): 1188.22 ± 16 kg/m3 | mass density (303.15 K, w1 = 0.288): 1203.33 ± 16 kg/m3 | mass density (303.15 K, w1 = 0.3072): 1220.11 ± 16 kg/m3 | mass density (303.15 K, w1 = 0.3265): 1235.29 ± 16 kg/m3 | mass density (303.15 K, w1 = 0.3457): 1250.3 ± 17 kg/m3 | mass density (303.15 K, w1 = 0.3648): 1265.94 ± 17 kg/m3 | mass density (303.15 K, w1 = 0.384): 1283.37 ± 17 kg/m3 | mass density (303.15 K, w1 = 0.4): 1296.68 ± 18 kg/m3 | mass density (313.15 K, w1 = 0.0966): 1053.6 ± 15 kg/m3 | mass density (313.15 K, w1 = 0.1151): 1068.89 ± 13 kg/m3 | mass density (313.15 K, w1 = 0.1365): 1082.6 ± 13 kg/m3 | mass density (313.15 K, w1 = 0.1536): 1093.86 ± 14 kg/m3 | mass density (313.15 K, w1 = 0.1728): 1107.33 ± 14 kg/m3 | mass density (313.15 K, w1 = 0.192): 1123.78 ± 15 kg/m3 | mass density (313.15 K, w1 = 0.2112): 1135.36 ± 16 kg/m3 | mass density (313.15 K, w1 = 0.2304): 1152.03 ± 15 kg/m3 | mass density (313.15 K, w1 = 0.2409): 1160.54 ± 16 kg/m3 | mass density (313.15 K, w1 = 0.2688): 1181.52 ± 16 kg/m3 | mass density (313.15 K, w1 = 0.288): 1196.6 ± 16 kg/m3 | mass density (313.15 K, w1 = 0.3072): 1213.75 ± 16 kg/m3 | mass density (313.15 K, w1 = 0.3265): 1228.03 ± 16 kg/m3 | mass density (313.15 K, w1 = 0.3457): 1243.38 ± 16 kg/m3 | mass density (313.15 K, w1 = 0.3648): 1258.73 ± 17 kg/m3 | mass density (313.15 K, w1 = 0.384): 1276.2 ± 17 kg/m3 | mass density (313.15 K, w1 = 0.4): 1289.37 ± 18 kg/m3 | mass density (323.15 K, w1 = 0.0966): 1049.23 ± 15 kg/m3 | mass density (323.15 K, w1 = 0.1151): 1063.56 ± 14 kg/m3 | mass density (323.15 K, w1 = 0.1365): 1078.45 ± 13 kg/m3 | mass density (323.15 K, w1 = 0.1536): 1089.88 ± 14 kg/m3 | mass density (323.15 K, w1 = 0.1728): 1101.93 ± 14 kg/m3 | mass density (323.15 K, w1 = 0.192): 1118.59 ± 15 kg/m3 | mass density (323.15 K, w1 = 0.2112): 1129.37 ± 15 kg/m3 | mass density (323.15 K, w1 = 0.2304): 1148.5 ± 15 kg/m3 | mass density (323.15 K, w1 = 0.2409): 1154.05 ± 16 kg/m3 | mass density (323.15 K, w1 = 0.2688): 1174.82 ± 16 kg/m3 | mass density (323.15 K, w1 = 0.288): 1189.76 ± 16 kg/m3 | mass density (323.15 K, w1 = 0.3072): 1206.84 ± 16 kg/m3 | mass density (323.15 K, w1 = 0.3265): 1221.02 ± 16 kg/m3 | mass density (323.15 K, w1 = 0.3457): 1236.27 ± 16 kg/m3 | mass density (323.15 K, w1 = 0.3648): 1251.57 ± 17 kg/m3 | mass density (323.15 K, w1 = 0.384): 1268.99 ± 17 kg/m3 | mass density (323.15 K, w1 = 0.4): 1282.4 ± 18 kg/m3 | mass density (333.15 K, w1 = 0.0966): 1043.53 ± 15 kg/m3 | mass density (333.15 K, w1 = 0.1151): 1058.71 ± 13 kg/m3 | mass density (333.15 K, w1 = 0.1365): 1072.64 ± 13 kg/m3 | mass density (333.15 K, w1 = 0.1536): 1084.63 ± 14 kg/m3 | mass density (333.15 K, w1 = 0.1728): 1095.88 ± 14 kg/m3 | mass density (333.15 K, w1 = 0.192): 1113.22 ± 15 kg/m3 | mass density (333.15 K, w1 = 0.2112): 1124.62 ± 15 kg/m3 | mass density (333.15 K, w1 = 0.2304): 1140.31 ± 15 kg/m3 | mass density (333.15 K, w1 = 0.2409): 1147.47 ± 15 kg/m3 | mass density (333.15 K, w1 = 0.2688): 1168.95 ± 16 kg/m3 | mass density (333.15 K, w1 = 0.288): 1183.88 ± 16 kg/m3 | mass density (333.15 K, w1 = 0.3072): 1200.67 ± 16 kg/m3 | mass density (333.15 K, w1 = 0.3265): 1214.92 ± 16 kg/m3 | mass density (333.15 K, w1 = 0.3457): 1230.89 ± 16 kg/m3 | mass density (333.15 K, w1 = 0.3648): 1244.44 ± 16 kg/m3 | mass density (333.15 K, w1 = 0.384): 1263.24 ± 17 kg/m3 | mass density (333.15 K, w1 = 0.4): 1275.2 ± 18 kg/m3
